Like-named read-outs stand apart in the source and are kept apart here.
How the values were obtained:
[1] = system: p53 signaling (p53RE-bla HCT-116 cells); assay: cells; type: cell-based
[2] = system: p53 signaling (p53RE-bla HCT-116 cells); assay: cells; type: cell-based; remark: listed apart in the source
[3] = system: p53 signaling (p53RE-bla HCT-116 cells); assay: cells; type: cell-based; conditions: for Emax: HCT-116, read-out: efficacy
[4] = system: p53 signaling (p53RE-bla HCT-116 cells)
[5] = system: p53 signaling (p53RE-bla HCT-116 cells); remark: listed apart in the source
[6] = rat
[7] = system: p53 signaling (p53RE-bla HCT-116 cells); assay: cells; conditions: Homo sapiens
in vitro = conditions: male, Sprague Dawley, rat, microsomes, pH 7.4
[8] = HCT-116, read-out: p53 activation EC50, cherry pick confirmation
[9] = HCT-116, read-out: p53 activation efficacy, cherry pick confirmation
[10] = HCT-116, read-out: p53 activation EC50, primary screening
[11] = HCT-116, read-out: p53 activation efficacy, primary screening

| SMILES | EC50 ([3]; Homo sapiens, HCT-116) [µM] | Depletion after 16 h of incubation with cells [6] [%] | EC50 ([7]; HCT-116) [µM] | Emax ([7]; HCT-116, read-out: efficacy) [%] | half-life (in vitro) [min] | p53 activation EC50, cherry pick confirmation [1] | p53 activation EC50, primary screening [1] | p53 activation efficacy, cherry pick confirmation [1] | p53 activation efficacy, primary screening [1] | EC50 [2] | p53 activation EC50, cherry pick confirmation [5] | p53 activation efficacy, cherry pick confirmation [5] | Viability EC50, cherry pick confirmation (p53RE-bla HCT-116 cells) | Viability EC50, primary screening (p53RE-bla HCT-116 cells) | Viability efficacy, cherry pick confirmation (p53RE-bla HCT-116 cells) | Viability efficacy, primary screening (p53RE-bla HCT-116 cells) | EC50 [7, 8] [µM] | Emax [7, 9] [%] | Emax ([3]; Homo sapiens) [%] | p53 activation EC50, primary screening [5] | also measured |
| --- | --- | --- | --- | --- | --- | --- | --- | --- | --- | --- | --- | --- | --- | --- | --- | --- | --- | --- | --- | --- | --- |
| CCN(CC)C(=O)SCc1ccc(Cl)cc1 [Thiobencarb] | 1.84 | 98.6 ± 0.04 | 5.52 | 71.8 | 1.48 ± 0.54 |  |  |  |  |  |  |  |  |  |  |  |  |  |  |  | p53 activation EC50 [1]: inactive; p53 activation efficacy [1]: inactive; EC50 ([2]; Homo sapiens, HCT-116, 0.5 h): 1.68 µM; p53 activation efficacy [4]: 51.3593; EC50 ([4]; read-out: p53 activation EC50): 1.63 µM; p53 activation EC50 [5]: inactive; Viability EC50 (p53RE-bla HCT-116 cells): inactive; Viability efficacy (p53RE-bla HCT-116 cells): inactive |
| CCOP(=S)(OCC)Oc1cnc2ccccc2n1 [Quinalphos] |  | 96.66 ± 0.83 | 9.46 | 32.7 | 2.49 ± 0.04 | inactive | inactive | inactive | inactive | Inactive | inactive | inactive | inactive | inactive | inactive | inactive | 7.65 | 34.3 |  |  | EC50 [3]: Inactive |
| Cc1cc(=O)oc2cc(O)ccc12 [4-Methylumbelliferone] | 24.2 | 46.53 ± 5.89 | 25.2 | 99.5 | 19.1 |  |  |  |  | Inactive |  |  |  |  |  |  |  |  | 114 |  | EC50, p53 activation, primary screening [1]: inactive; Efficacy, p53 activation, primary screening [1]: inactive; EC50 ([1]; Homo sapiens, HCT-116, read-out: EC50, p53 activation, cherry pick confirmation): 18.2 µM; Emax ([1]; Homo sapiens, HCT-116, read-out: Efficacy, p53 activation, cherry pick confirmation): 30%; EC50, p53 activation, cherry pick confirmation [5]: inactive; Efficacy, p53 activation, cherry pick confirmation [5]: inactive; EC50, viability, cherry pick confirmation (p53RE-bla HCT-116 cells): inactive; EC50, viability, primary screening (p53RE-bla HCT-116 cells): inactive; Efficacy, viability, cherry pick confirmation (p53RE-bla HCT-116 cells): inactive; Efficacy, viability, primary screening (p53RE-bla HCT-116 cells): inactive; EC50 ([7]; HCT-116, read-out: EC50, p53 activation, cherry pick confirmation): 25.9 µM; Emax ([7]; HCT-116, read-out: Efficacy, p53 activation, cherry pick confirmation): 89.9% |
| CCSC(=O)N1CCCCCC1 [Molinate] | 0.3 | 97.58 ± 0.19 | 0.35 | 40.5 | 12 ± 0.18 | inactive | inactive | inactive | inactive | Inactive | inactive | inactive | inactive | inactive | inactive | inactive | 0.355 | 39.9 | 44.1 | inactive | p53 activation efficacy, primary screening [5]: inactive; EC50 [7, 10]: 1.85 µM; Emax [7, 11]: 45.3% |
| COc1c2ccoc2cc2oc(=O)ccc12 [5-Methoxypsoralen] | 13.2 | 45.7 ± 3.67 | 16.4 | 72.3 | 21.1 ± 3.72 | inactive | inactive | inactive | inactive | Inactive | inactive | inactive | inactive | inactive | inactive | inactive | 9.45 | 62.5 | 75 | inactive | p53 activation efficacy, primary screening [5]: inactive; EC50 [7, 10]: 20.9 µM; Emax [7, 11]: 81.3% |

From PMC9151520 (Archives of Toxicology, 2022)
